# In patent publication US20260167622A1, “PAN-KRAS DEGRADING AGENT, AND PREPARATION METHOD THEREFOR AND USE THEREOF” (LEADINGTAC PHARMACEUTICAL (SHAOXING) CO., LTD., priority 2022, published 2026):
# Columns and labels:
# [1] = tested on: KRAS WT human gastric cancer cell MKN1; assay: 3D cell proliferation inhibition assay, MKN1; format: cell-based; details: MKN-1, 168 h, 3D culture, 7 days, CTG
# In short: (§1)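 Seven-day 3D growth at 37 °C in low-adsorption wells, 5×10^2 cells/well except MKN1 (1×10^3), final compound range 10000–0.026 nM in 0.2% DMSO. CTG luminescence read-out; percent inhibition set against DMSO and medium-only wells, IC50 by curve fitting.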
# Human KRAS G12V = target: T1, Human KRAS G12V (Homo sapiens, UniProt P01116, G12V); assay: KRAS-G12V/GTP binding assay (HTRF kit); details: 25° C., 1 h
# T1 construct: purchased PerkinElmer
# T1 sequence (P01116 1-188 isoform P01116-2 G12V): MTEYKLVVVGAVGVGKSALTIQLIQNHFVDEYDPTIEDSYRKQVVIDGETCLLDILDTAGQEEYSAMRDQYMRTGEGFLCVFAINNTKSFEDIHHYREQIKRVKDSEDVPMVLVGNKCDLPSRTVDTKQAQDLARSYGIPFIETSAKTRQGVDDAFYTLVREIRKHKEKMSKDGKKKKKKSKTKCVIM
# Description: Test Example 2: KRAS G12V Binding Assay
# In this method, the inhibitory effects of the compounds on the binding of KRAS G12V to GTP were assayed by a homogeneous time-resolved fluorescence (HTRF) technique using a KRAS-G12V/GTP binding assay kit (PerkinElmer).
# The experimental procedures were as follows (refer to the kit instructions for detailed test methods): the compounds of the present disclosure were each firstly dissolved in DMSO at a concentration of 20 mM, and then diluted in an equal gradient with a buffer in the kit, so that the final concentrations of the test compounds in the reaction system were in a range of 0.02-5000 nM, and the final concentration of DMSO was 0.5%. 5 μL of each compound was incubated with 5 μL of 1× Human KRAS G12V 6His-tagged (PerkinElmer), 5 µL of 1×6His Eu Cryptate Antibody (PerkinElmer), and 5 μL of 1×GTP Red reagent (PerkinElmer) in a 384-well plate (Greiner) at 25° C. for 1 h. After the incubation was completed, the fluorescence intensity of each well was measured at the excitation wavelength of 337 nm and the emission wavelengths of 620 nm and 665 nm with an EnVision microplate reader (PerkinElmer) in the HTRF mode, and Ratio values were calculated using the formula: Ratio=(665 nm/620 nm)×10^4. The inhibition rates of the compounds at each concentration were calculated by comparing the fluorescence intensity ratio with that of the control group. Then non-linear curve fittings for logarithmic concentration-inhibition rate were performed using the GraphPad Prism 8 analysis software, and the IC50 values of the compounds were obtained (Table 3).
# [2] = tested on: KRAS G12V mutant human colorectal cancer cell SW620; assay: 3D cell proliferation inhibition assay, SW620; format: cell-based; details: SW-620, 168 h, 3D culture, 7 days, CTG
# In short: as §1
# [3] = tested on: KRAS G12V mutant human lung squamous carcinoma cell SW900; assay: 3D cell proliferation inhibition assay, SW900; format: cell-based; details: SW900, 168 h, 3D culture, 7 days, CTG
IC50 [1] [nM],IC50 (Human KRAS G12V) [nM],IC50 [2] [nM],IC50 [3] [nM],Compound
≤ 50,≤ 500,1.41,≤ 50,"C#Cc1c(F)ccc2cc(O)cc(-c3ncc4c(N5CCC[C@@](C)(O)C5)nc(OCC5(CN6CCN(CC7CCC8(CC7)CCN(C(=O)c7ccc(Cl)c(N9CCC(=O)NC9=O)c7)CC8)CC6)CC5)nc4c3F)c12 [Example 1, (R)-1-(2-chloro-5-(9-((4-((1-(((7-(8-ethynyl-7-fluoro-3-hydroxynaphthalen-1-yl)-8-fluoro-4-(3-hydroxy-3-methylpiperidin-1-yl)pyrido[4,3-d]pyrimidin-2-yl)oxy)methyl)cyclopropyl)methyl)piperazin-1-yl)methyl)-3-azaspiro[5.5]undecane-3-carbonyl)phenyl)dihydropyrimidine-2,4(1H,3H)-dione]"
≤ 50,≤ 500,1.85,≤ 50,"CCc1c(F)ccc2cc(O)cc(-c3ncc4c(N5CCC[C@@](C)(O)C5)nc(OCC5(CN6CCN(CC7CCC8(CC7)CCN(C(=O)c7ccc(Cl)c(N9CCC(=O)NC9=O)c7)CC8)CC6)CC5)nc4c3F)c12 [Example 2, (R)-1-(2-chloro-5-(9-((4-((1-(((7-(8-ethyl-7-fluoro-3-hydroxynaphthalen-1-yl)-8-fluoro-4-(3-hydroxy-3-methylpiperidin-1-yl)pyrido[4,3-d]pyrimidin-2-yl)oxy)methyl)cyclopropyl)methyl)piperazin-1-yl)methyl)-3-azaspiro[5.5]undecane-3-carbonyl)phenyl)dihydropyrimidine-2,4(1H,3H)-dione]"
≤ 50,≤ 500,2.52,100 to 500,"CCc1cccc2cc(O)cc(-c3ncc4c(N5CCC[C@@](C)(O)C5)nc(OCC5(CN6CCN(CC7CCC8(CC7)CCN(C(=O)c7ccc(Cl)c(N9CCC(=O)NC9=O)c7)CC8)CC6)CC5)nc4c3F)c12 [Example 3, (R)-1-(2-chloro-5-(9-((4-((1-(((7-(8-ethyl-3-hydroxynaphthalen-1-yl)-8-fluoro-4-(3-hydroxy-3-methylpiperidin-1-yl)pyrido[4,3-d]pyrimidin-2-yl)oxy)methyl)cyclopropyl)methyl)piperazin-1-yl)methyl)-3-azaspiro[5.5]undecane-3-carbonyl)phenyl)dihydropyrimidine-2,4(1H,3H)-dione]"
≤ 50,≤ 500,1.28,≤ 50,"C#Cc1c(F)ccc2cc(O)cc(-c3ncc4c(N5CCC[C@@](C)(O)C5)nc(OCC5(CN6CCN(CC7CCC8(CC7)CCN(C(=O)c7ccc(C)c(N9CCC(=O)NC9=O)c7)CC8)CC6)CC5)nc4c3F)c12 [Example 6, (R)-1-(5-(9-((4-((1-(((7-(8-ethynyl-7-fluoro-3-hydroxynaphthalen-1-yl)-8-fluoro-4-(3-hydroxy-3-methylpiperidin-1-yl)pyrido[4,3-d]pyrimidin-2-yl)oxy)methyl)cyclopropyl)methyl)piperazin-1-yl)methyl)-3-azaspiro[5.5]undecane-3-carbonyl)-2-methylphenyl)dihydropyrimidine-2,4(1H,3H)-dione]"
≤ 50,≤ 500,1.81,≤ 50,"C#Cc1c(F)ccc2cc(O)cc(-c3ncc4c(N5CCC[C@@](C)(O)C5)nc(OCC5(CN6CCN(CC7CCC8(CC7)CCN(C(=O)c7ccc(OC)c(N9CCC(=O)NC9=O)c7)CC8)CC6)CC5)nc4c3F)c12 [Example 7, (R)-1-(5-(9-((4-((1-(((7-(8-ethynyl-7-fluoro-3-hydroxynaphthalen-1-yl)-8-fluoro-4-(3-hydroxy-3-methylpiperidin-1-yl)pyrido[4,3-d]pyrimidin-2-yl)oxy)methyl)cyclopropyl)methyl)piperazin-1-yl)methyl)-3-azaspiro[5.5]undecane-3-carbonyl)-2-methoxyphenyl)dihydropyrimidine-2,4(1H,3H)-dione]"
≤ 50,500 to 1000,5.43,≤ 50,"C#Cc1cccc2cc(O)cc(-c3ncc4c(N5CCC[C@@](C)(O)C5)nc(OCC5(CN6CCN(CC7CCC8(CC7)CCN(C(=O)c7ccc(Cl)c(N9CCC(=O)NC9=O)c7)CC8)CC6)CC5)nc4c3F)c12 [Example 11, (R)-1-(2-chloro-5-(9-((4-((1-(((7-(8-ethynyl-3-hydroxynaphthalen-1-yl)-8-fluoro-4-(3-hydroxy-3-methylpiperidin-1-yl)pyrido[4,3-d]pyrimidin-2-yl)oxy)methyl)cyclopropyl)methyl)piperazin-1-yl)methyl)-3-azaspiro[5.5]undecane-3-carbonyl)phenyl)dihydropyrimidine-2,4(1H,3H)-dione]"
